Reference: ChEMBL document CHEMBL5653631, “A Potent and Selective ULK1 Inhibitor Suppresses Autophagy and Sensitizes Cancer Cells to Nutrient Stress” (iScience, 2018)
One block for each molecule: values may come before it.

Columns and labels:
[1] = biological target: Mast/stem cell growth factor receptor Kit (Homo sapiens) (UniProt P10721); assay: Inhibition of human recombinant KIT at 500 nM in presence of ATP by radiometric assay relative to control
[2] = biological target: T1, Serine/threonine-protein kinase DCLK3 (Homo sapiens) (UniProt Q9C098); assay: Inhibition of human recombinant DCAMKL3 at 15 nM related to control ULK1
T1 sequence (whole entry): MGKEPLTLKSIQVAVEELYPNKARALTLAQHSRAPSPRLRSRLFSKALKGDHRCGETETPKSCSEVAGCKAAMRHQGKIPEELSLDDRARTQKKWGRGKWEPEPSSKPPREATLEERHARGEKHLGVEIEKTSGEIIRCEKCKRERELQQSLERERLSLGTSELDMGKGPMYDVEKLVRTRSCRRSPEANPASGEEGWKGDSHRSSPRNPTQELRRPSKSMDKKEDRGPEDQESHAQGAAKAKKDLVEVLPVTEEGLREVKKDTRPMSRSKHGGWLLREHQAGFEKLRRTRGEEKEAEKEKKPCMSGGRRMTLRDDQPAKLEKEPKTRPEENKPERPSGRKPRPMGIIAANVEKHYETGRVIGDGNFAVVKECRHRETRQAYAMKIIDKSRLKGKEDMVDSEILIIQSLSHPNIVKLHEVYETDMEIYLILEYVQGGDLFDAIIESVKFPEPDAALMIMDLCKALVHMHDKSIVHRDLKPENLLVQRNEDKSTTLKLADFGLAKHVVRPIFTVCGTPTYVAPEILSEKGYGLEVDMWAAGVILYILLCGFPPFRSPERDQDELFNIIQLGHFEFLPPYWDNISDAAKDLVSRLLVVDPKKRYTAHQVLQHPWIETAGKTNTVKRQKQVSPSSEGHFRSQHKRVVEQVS

[3] = biological target: T2, Mitogen-activated protein kinase 13 (Homo sapiens) (UniProt O15264); assay: Inhibition of human recombinant p38delta at 15 nM related to control ULK1
T2 sequence (whole entry): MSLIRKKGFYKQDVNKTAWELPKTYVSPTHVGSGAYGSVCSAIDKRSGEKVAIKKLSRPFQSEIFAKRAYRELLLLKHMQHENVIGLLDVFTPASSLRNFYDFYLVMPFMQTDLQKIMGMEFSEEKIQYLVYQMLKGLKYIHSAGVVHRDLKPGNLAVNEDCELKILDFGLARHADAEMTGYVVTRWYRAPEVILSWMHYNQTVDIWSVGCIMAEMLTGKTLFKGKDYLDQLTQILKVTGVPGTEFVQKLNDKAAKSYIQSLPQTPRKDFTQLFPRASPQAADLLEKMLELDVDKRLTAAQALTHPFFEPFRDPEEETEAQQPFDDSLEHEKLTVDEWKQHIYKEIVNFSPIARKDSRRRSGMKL

[4] = biological target: Serine/threonine-protein kinase D2 (Homo sapiens) (UniProt Q9BZL6); assay: Inhibition of human recombinant PKD2 at 15 nM related to control ULK1
[5] = biological target: Tau-tubulin kinase 2 (Homo sapiens) (UniProt Q6IQ55); assay: Inhibition of human recombinant TTBK2 at 15 nM in presence of ATP by radiometric assay relative to control
[6] = biological target: TGF-beta receptor type-2 (Homo sapiens) (UniProt P37173); assay: Inhibition of human recombinant TGFbR2 at 15 nM related to control ULK1
[7] = biological target: MAP kinase-interacting serine/threonine-protein kinase 2 (Homo sapiens, UniProt Q9HBH9); assay: Inhibition of human recombinant MNK2 at 15 nM related to control ULK1
[8] = biological target: T3, Ephrin type-B receptor 3 (Homo sapiens) (UniProt P54753); assay: Inhibition of human recombinant EphB3 at 40 nM in presence of ATP by radiometric assay relative to control
T3 sequence (whole entry): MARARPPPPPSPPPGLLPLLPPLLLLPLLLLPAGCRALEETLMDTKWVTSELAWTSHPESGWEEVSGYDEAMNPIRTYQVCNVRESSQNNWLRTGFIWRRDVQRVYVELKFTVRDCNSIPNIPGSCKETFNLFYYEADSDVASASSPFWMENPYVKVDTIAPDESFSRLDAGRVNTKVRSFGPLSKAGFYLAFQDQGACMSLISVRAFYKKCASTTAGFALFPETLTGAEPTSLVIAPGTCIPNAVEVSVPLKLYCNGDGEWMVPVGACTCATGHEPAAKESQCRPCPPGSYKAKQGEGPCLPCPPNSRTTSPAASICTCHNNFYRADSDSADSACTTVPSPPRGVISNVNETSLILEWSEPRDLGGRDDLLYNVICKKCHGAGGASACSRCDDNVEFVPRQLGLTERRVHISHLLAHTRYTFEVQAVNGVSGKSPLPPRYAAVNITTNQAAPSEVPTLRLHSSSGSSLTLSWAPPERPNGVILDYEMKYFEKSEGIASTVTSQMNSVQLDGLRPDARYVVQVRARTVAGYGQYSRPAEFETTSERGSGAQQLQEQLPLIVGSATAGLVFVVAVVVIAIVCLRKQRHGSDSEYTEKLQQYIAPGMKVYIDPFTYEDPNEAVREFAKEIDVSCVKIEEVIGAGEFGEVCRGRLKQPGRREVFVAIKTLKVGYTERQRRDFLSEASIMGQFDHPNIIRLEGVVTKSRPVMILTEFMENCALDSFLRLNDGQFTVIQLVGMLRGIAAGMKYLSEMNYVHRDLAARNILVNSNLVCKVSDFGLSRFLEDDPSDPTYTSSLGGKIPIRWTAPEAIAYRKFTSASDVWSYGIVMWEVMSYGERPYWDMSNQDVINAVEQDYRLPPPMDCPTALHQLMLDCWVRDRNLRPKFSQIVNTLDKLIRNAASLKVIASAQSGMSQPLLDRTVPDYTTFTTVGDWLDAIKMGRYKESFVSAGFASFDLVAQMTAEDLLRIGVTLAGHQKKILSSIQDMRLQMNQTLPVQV

Homo sapiens = species on record: Homo sapiens; assay: Inhibition of human recombinant p70S6K at 40 nM related to control ULK1
[9] = biological target: Proto-oncogene tyrosine-protein kinase ROS (Homo sapiens) (UniProt P08922); assay: Inhibition of human recombinant ROS at 40 nM related to control ULK1
[10] = biological target: Transcription initiation factor TFIID subunit 1-like (Homo sapiens) (UniProt Q8IZX4); assay: Inhibition of human recombinant TAF1L at 40 nM related to control ULK1
Chain of Transcription initiation factor TFIID subunit 1-like (Homo sapiens) (Q8IZX4 whole entry): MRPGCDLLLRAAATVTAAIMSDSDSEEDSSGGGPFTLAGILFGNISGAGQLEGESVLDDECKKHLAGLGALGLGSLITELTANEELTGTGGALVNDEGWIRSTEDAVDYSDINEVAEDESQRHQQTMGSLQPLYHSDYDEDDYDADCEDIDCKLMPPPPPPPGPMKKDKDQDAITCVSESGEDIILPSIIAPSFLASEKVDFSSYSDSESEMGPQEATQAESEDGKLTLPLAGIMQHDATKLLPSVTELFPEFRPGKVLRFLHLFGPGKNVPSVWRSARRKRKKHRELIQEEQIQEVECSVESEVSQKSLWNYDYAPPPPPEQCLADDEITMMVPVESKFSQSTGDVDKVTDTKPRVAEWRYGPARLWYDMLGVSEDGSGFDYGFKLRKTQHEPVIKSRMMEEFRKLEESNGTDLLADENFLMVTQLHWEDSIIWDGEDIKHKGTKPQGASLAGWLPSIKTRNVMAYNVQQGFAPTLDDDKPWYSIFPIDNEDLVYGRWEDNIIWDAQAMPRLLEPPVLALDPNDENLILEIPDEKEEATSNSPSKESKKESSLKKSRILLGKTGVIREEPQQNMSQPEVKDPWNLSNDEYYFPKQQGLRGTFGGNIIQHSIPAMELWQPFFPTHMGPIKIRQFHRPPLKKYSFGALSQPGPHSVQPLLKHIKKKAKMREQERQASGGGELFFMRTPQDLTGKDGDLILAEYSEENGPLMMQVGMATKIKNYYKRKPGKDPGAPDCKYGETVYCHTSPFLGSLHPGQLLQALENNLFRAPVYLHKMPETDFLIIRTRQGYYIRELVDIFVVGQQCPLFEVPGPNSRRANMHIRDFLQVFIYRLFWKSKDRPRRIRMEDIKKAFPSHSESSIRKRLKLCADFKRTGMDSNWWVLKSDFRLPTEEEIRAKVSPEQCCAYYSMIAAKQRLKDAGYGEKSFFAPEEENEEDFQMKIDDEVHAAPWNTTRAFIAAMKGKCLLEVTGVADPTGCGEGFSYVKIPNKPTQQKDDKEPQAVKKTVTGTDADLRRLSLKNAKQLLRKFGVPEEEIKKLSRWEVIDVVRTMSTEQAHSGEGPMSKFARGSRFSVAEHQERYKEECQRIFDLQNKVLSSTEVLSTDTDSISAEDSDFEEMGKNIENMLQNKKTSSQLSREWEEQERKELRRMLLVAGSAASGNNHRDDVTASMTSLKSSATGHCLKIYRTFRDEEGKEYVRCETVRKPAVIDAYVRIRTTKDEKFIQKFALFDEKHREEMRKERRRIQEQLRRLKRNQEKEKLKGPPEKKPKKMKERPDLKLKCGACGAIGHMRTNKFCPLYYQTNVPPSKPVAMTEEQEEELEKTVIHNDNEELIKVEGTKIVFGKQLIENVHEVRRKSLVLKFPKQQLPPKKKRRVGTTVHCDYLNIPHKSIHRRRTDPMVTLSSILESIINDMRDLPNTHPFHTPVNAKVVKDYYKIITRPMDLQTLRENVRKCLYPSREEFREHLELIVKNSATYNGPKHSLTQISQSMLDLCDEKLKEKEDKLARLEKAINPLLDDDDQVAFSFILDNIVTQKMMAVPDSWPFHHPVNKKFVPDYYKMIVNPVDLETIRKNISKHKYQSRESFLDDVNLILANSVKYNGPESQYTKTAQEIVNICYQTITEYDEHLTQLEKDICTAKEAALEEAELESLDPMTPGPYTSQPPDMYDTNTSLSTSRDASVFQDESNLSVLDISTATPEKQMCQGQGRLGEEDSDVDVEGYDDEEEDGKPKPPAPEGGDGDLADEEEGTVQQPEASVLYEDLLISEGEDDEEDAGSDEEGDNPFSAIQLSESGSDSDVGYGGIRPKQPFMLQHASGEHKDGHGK

Chain of TGF-beta receptor type-2 (Homo sapiens) (P37173 whole entry): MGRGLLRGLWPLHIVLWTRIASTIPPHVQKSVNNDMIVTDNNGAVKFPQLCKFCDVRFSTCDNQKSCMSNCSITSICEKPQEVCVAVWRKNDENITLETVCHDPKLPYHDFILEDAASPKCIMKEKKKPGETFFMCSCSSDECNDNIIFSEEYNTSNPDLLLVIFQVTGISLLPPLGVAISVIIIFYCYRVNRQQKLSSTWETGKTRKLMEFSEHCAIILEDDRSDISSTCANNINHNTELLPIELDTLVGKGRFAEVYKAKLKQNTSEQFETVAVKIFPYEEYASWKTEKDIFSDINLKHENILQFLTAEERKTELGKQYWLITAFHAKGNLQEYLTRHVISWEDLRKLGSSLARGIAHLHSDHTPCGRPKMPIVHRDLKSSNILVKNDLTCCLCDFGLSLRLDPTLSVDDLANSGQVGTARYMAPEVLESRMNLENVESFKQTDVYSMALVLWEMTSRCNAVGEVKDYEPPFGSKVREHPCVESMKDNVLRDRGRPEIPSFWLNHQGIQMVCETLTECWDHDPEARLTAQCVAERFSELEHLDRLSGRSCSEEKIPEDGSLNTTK
Chain of Serine/threonine-protein kinase D2 (Homo sapiens) (Q9BZL6 whole entry, looked up): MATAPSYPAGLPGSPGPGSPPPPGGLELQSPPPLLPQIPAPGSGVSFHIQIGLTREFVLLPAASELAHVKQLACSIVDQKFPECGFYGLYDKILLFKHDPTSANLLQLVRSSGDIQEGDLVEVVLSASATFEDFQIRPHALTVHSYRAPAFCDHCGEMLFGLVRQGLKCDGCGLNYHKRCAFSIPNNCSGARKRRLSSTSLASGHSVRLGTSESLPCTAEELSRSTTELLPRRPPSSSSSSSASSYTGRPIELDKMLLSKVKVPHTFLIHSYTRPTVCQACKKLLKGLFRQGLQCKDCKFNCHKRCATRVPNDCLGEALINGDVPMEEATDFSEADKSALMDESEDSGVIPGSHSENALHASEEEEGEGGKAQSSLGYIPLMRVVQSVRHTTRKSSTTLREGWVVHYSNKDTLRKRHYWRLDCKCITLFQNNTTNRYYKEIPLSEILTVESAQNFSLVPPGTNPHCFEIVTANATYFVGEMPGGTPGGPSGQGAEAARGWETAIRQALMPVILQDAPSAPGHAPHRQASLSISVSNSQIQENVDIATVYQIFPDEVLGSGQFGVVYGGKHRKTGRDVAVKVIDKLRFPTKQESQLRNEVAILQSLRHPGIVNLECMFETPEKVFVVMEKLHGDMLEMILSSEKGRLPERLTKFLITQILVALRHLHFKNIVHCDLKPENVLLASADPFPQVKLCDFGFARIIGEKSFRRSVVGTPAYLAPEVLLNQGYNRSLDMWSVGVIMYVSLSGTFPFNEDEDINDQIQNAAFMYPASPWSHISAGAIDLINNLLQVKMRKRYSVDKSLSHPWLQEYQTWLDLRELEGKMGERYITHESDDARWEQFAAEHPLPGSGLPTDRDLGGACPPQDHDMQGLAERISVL
Chain of MAP kinase-interacting serine/threonine-protein kinase 2 (Q9HBH9 whole entry, looked up): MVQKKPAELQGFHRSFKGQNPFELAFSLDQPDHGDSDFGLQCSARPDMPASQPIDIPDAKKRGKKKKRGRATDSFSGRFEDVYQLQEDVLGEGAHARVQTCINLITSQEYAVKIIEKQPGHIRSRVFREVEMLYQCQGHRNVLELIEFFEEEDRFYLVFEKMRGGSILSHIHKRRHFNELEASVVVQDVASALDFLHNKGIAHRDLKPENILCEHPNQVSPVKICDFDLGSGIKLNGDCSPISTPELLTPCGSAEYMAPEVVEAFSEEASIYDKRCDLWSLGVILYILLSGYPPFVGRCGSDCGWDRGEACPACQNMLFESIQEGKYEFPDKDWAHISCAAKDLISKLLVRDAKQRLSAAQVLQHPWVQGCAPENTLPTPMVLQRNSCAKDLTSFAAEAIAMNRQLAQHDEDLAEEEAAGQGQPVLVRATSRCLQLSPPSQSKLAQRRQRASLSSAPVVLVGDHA
Chain of Mast/stem cell growth factor receptor Kit (Homo sapiens) (P10721 whole entry): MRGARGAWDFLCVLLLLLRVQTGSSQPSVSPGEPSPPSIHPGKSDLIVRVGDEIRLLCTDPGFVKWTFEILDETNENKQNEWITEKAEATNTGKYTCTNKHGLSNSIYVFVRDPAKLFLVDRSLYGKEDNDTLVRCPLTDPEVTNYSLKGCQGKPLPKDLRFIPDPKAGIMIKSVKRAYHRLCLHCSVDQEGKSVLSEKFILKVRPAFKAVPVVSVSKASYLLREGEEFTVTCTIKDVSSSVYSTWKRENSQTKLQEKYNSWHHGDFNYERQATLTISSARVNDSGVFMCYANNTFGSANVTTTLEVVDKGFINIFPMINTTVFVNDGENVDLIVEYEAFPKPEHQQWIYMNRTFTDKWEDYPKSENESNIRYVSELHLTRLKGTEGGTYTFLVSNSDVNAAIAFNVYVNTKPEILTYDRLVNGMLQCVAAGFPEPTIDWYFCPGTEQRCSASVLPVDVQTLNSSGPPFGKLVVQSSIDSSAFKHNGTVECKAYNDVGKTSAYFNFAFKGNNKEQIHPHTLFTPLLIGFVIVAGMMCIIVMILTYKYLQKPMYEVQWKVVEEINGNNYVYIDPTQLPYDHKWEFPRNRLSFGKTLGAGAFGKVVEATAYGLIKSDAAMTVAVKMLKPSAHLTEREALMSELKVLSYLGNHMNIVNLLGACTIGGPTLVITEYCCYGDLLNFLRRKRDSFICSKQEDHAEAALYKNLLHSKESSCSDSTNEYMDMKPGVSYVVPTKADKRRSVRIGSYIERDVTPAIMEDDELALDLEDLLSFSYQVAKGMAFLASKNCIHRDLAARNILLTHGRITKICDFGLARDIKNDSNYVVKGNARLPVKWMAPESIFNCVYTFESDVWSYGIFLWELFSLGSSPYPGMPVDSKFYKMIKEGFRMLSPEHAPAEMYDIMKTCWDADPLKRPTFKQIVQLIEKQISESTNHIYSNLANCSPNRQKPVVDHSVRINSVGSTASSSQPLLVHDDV

inhibition [1]: 1%
Structure (SMILES): CNC(=O)c1ccccc1Oc1nc(Nc2cc(OC)c(OC)c(OC)c2)ncc1Br

fold change (FC) [2]: 0.4 | fold change (FC) [3]: 0.07 | fold change (FC) [4]: 0 | inhibition [5]: 0% | fold change (FC) [6]: 0.48 | fold change (FC) [7]: 0.3
Structure (SMILES): CC(C)[C@H](NC(=O)c1cc(-c2cnn3cc(-c4ccc(OCCN5CCCCC5)cc4)cnc23)cs1)C(F)(F)F

inhibition [8]: 0% | fold change (FC) (Homo sapiens): 0.03 | fold change (FC) [9]: 0 | fold change (FC) [10]: 0.64
Structure (SMILES): O=C(N[C@@H](C1CC1)C(F)(F)F)c1cc(-c2cnn3cc(-c4ccc(F)cc4)cnc23)cs1
